Laboratory results taken from patent EP3521435A1, “A HIGH STRINGENCY SELECTION SYSTEM FOR PROTEIN EXPRESSION IN PROLINE-AUXOTROPHIC CELLS” (Bayer AG, priority 2018, dated 2019).

Test system: CHO-K1 cells
Assay: Batch fermentation in shake flasks of human IgG1 expressing stable cell populations (Poros A-HPLC titer, viable cell density, viability)
Type: cell-based, Chinese hamster
Settings: pJF1576
[1] = Day 2 after inoculation, selected in CD-Fusion w/o Pro + 0.05 mM DHP, non-selecting conditions
[2] = Day 2 after inoculation, selected in CD-Fusion w/o Pro + 0.1 mM DHP, non-selecting conditions
[3] = Day 2 after inoculation, selected in CD-Fusion w/o Pro + 0.2 mM DHP, non-selecting conditions
[4] = Day 2 after inoculation, selected in CD-Fusion w/o Pro + 0.4 mM DHP, non-selecting conditions
[5] = Day 3 after inoculation, selected in CD-Fusion w/o Pro + 0.05 mM DHP, selective conditions
[6] = Day 3 after inoculation, selected in CD-Fusion w/o Pro + 0.1 mM DHP, selective conditions
[7] = Day 3 after inoculation, selected in CD-Fusion w/o Pro + 0.2 mM DHP, selective conditions
[8] = Day 3 after inoculation, selected in CD-Fusion w/o Pro + 0.4 mM DHP, selective conditions
[9] = Day 4 after inoculation, selected in CD-Fusion w/o Pro + 0.05 mM DHP, non-selecting conditions
[10] = Day 4 after inoculation, selected in CD-Fusion w/o Pro + 0.1 mM DHP, non-selecting conditions
[11] = Day 4 after inoculation, selected in CD-Fusion w/o Pro + 0.2 mM DHP, non-selecting conditions
[12] = Day 4 after inoculation, selected in CD-Fusion w/o Pro + 0.4 mM DHP, non-selecting conditions
[13] = Day 5 after inoculation, selected in CD-Fusion w/o Pro + 0.05 mM DHP, selective conditions
[14] = Day 5 after inoculation, selected in CD-Fusion w/o Pro + 0.1 mM DHP, selective conditions
[15] = Day 5 after inoculation, selected in CD-Fusion w/o Pro + 0.2 mM DHP, selective conditions
[16] = Day 5 after inoculation, selected in CD-Fusion w/o Pro + 0.4 mM DHP, selective conditions
[17] = Day 7 after inoculation, selected in CD-Fusion w/o Pro + 0.05 mM DHP, non-selecting conditions
[18] = Day 7 after inoculation, selected in CD-Fusion w/o Pro + 0.05 mM DHP, selective conditions
[19] = Day 7 after inoculation, selected in CD-Fusion w/o Pro + 0.1 mM DHP, non-selecting conditions

O=C(O)[C@@H]1C=CCN1 [DHP, 3,4-Dehydro-L-Proline]
titer improvements (0.2 mM or 0.4 mM DHP as additional selection additives, human IgG1, non-selecting batch, #1 - #3 vs #6 & #7): 2-3 fold
titer improvements as compared to Puromycin-based selections (DHP as additional selection agent in initial selections, human IgG1, batch under selective conditions): 2-3 fold
Viability profile (Day 0 after inoculation, selected in CD-Fusion w/o Pro + 0.05 mM DHP, non-selecting conditions): 99.4%
Viability profile (Day 0 after inoculation, selected in CD-Fusion w/o Pro + 0.05 mM DHP, selective conditions): 98.4%
Viability profile (Day 0 after inoculation, selected in CD-Fusion w/o Pro + 0.1 mM DHP, non-selecting conditions): 99.0%
Viability profile (Day 0 after inoculation, selected in CD-Fusion w/o Pro + 0.1 mM DHP, selective conditions): 97.5%
Viability profile (Day 0 after inoculation, selected in CD-Fusion w/o Pro + 0.2 mM DHP, non-selecting conditions): 98.6%
Viability profile (Day 0 after inoculation, selected in CD-Fusion w/o Pro + 0.2 mM DHP, selective conditions): 98.2%
Viability profile (Day 0 after inoculation, selected in CD-Fusion w/o Pro + 0.4 mM DHP, non-selecting conditions): 96.3%
Viability profile (Day 0 after inoculation, selected in CD-Fusion w/o Pro + 0.4 mM DHP, selective conditions): 99.7%
Productivity profile (Day 2 after inoculation, human IgG1, selected in CD-Fusion w/o Pro + 0.05 mM DHP, non-selecting conditions): 9.8 mg/L
Productivity profile (Day 2 after inoculation, human IgG1, selected in CD-Fusion w/o Pro + 0.05 mM DHP, selective conditions): 47.1 mg/L
Productivity profile (Day 2 after inoculation, human IgG1, selected in CD-Fusion w/o Pro + 0.1 mM DHP, non-selecting conditions): 11.0 mg/L
Productivity profile (Day 2 after inoculation, human IgG1, selected in CD-Fusion w/o Pro + 0.1 mM DHP, selective conditions): 37.5 mg/L
Productivity profile (Day 2 after inoculation, human IgG1, selected in CD-Fusion w/o Pro + 0.2 mM DHP, non-selecting conditions): 11.3 mg/L
Productivity profile (Day 2 after inoculation, human IgG1, selected in CD-Fusion w/o Pro + 0.2 mM DHP, selective conditions): 34.4 mg/L
Productivity profile (Day 2 after inoculation, human IgG1, selected in CD-Fusion w/o Pro + 0.4 mM DHP, non-selecting conditions): 11.3 mg/L
Productivity profile (Day 2 after inoculation, human IgG1, selected in CD-Fusion w/o Pro + 0.4 mM DHP, selective conditions): 39.4 mg/L
Viability profile [1]: 98.9%
Viable cell density profile [1]: 6,1E+05 VCD/ml
Viability profile [2]: 99.3%
Viable cell density profile [2]: 7,9E+05 VCD/ml
Viability profile [3]: 99.2%
Viable cell density profile [3]: 6,4E+05 VCD/ml
Viability profile [4]: 99.3%
Viable cell density profile [4]: 8,0E+05 VCD/ml
Viability profile [5]: 99.3%
Viable cell density profile [5]: 5.6E+06 VCD/ml
Viability profile [6]: 99.4%
Viable cell density profile [6]: 7.4E+06 VCD/ml
Viability profile [7]: 99.1%
Viable cell density profile [7]: 2.4E+06 VCD/ml
Viability profile [8]: 99.3%
Viable cell density profile [8]: 5.3E+06 VCD/ml
Productivity profile (Day 4 after inoculation, human IgG1, selected in CD-Fusion w/o Pro + 0.05 mM DHP, non-selecting conditions): 24.2 mg/L
Productivity profile (Day 4 after inoculation, human IgG1, selected in CD-Fusion w/o Pro + 0.05 mM DHP, selective conditions): 114.8 mg/L
Productivity profile (Day 4 after inoculation, human IgG1, selected in CD-Fusion w/o Pro + 0.1 mM DHP, non-selecting conditions): 31.7 mg/L
Productivity profile (Day 4 after inoculation, human IgG1, selected in CD-Fusion w/o Pro + 0.1 mM DHP, selective conditions): 83.8 mg/L
Productivity profile (Day 4 after inoculation, human IgG1, selected in CD-Fusion w/o Pro + 0.2 mM DHP, non-selecting conditions): 34.6 mg/L
Productivity profile (Day 4 after inoculation, human IgG1, selected in CD-Fusion w/o Pro + 0.2 mM DHP, selective conditions): 104.8 mg/L
Productivity profile (Day 4 after inoculation, human IgG1, selected in CD-Fusion w/o Pro + 0.4 mM DHP, non-selecting conditions): 41.0 mg/L
Productivity profile (Day 4 after inoculation, human IgG1, selected in CD-Fusion w/o Pro + 0.4 mM DHP, selective conditions): 105.5 mg/L
Viability profile [9]: 99.8%
Viable cell density profile [9]: 5,3E+06 VCD/ml
Viability profile [10]: 99.7%
Viable cell density profile [10]: 6,5E+06 VCD/ml
Viability profile [11]: 99.5%
Viable cell density profile [11]: 5,2E+06 VCD/ml
Viability profile [12]: 99.6%
Viable cell density profile [12]: 6,1E+06 VCD/ml
Viability profile [13]: 96.4%
Viable cell density profile [13]: 9.5E+06 VCD/ml
Viability profile [14]: 97.5%
Viable cell density profile [14]: 1.2E+07 VCD/ml
Viability profile [15]: 98.9%
Viable cell density profile [15]: 6.9E+06 VCD/ml
Viability profile [16]: 96.1%
Viable cell density profile [16]: 1.1E+07 VCD/ml
Productivity profile (Day 7 after inoculation, human IgG1, selected in CD-Fusion w/o Pro + 0.05 mM DHP, non-selecting conditions): 48.6 mg/L
Productivity profile (Day 7 after inoculation, human IgG1, selected in CD-Fusion w/o Pro + 0.05 mM DHP, selective conditions): 166.2 mg/L
Productivity profile (Day 7 after inoculation, human IgG1, selected in CD-Fusion w/o Pro + 0.1 mM DHP, non-selecting conditions): 104.4 mg/L
Productivity profile (Day 7 after inoculation, human IgG1, selected in CD-Fusion w/o Pro + 0.1 mM DHP, selective conditions): 125.8 mg/L
Productivity profile (Day 7 after inoculation, human IgG1, selected in CD-Fusion w/o Pro + 0.2 mM DHP, non-selecting conditions): 87.4 mg/L
Productivity profile (Day 7 after inoculation, human IgG1, selected in CD-Fusion w/o Pro + 0.2 mM DHP, selective conditions): 179.7 mg/L
Productivity profile (Day 7 after inoculation, human IgG1, selected in CD-Fusion w/o Pro + 0.4 mM DHP, non-selecting conditions): 116.4 mg/L
Productivity profile (Day 7 after inoculation, human IgG1, selected in CD-Fusion w/o Pro + 0.4 mM DHP, selective conditions): 133.4 mg/L
Viability profile [17]: 98.6%
Viable cell density profile [17]: 1,0E+07 VCD/ml
Viability profile [18]: 45.3%
Viable cell density profile [18]: 4.6E+06 VCD/ml
Viability profile [19]: 95.6%
Viable cell density profile [19]: 7,9E+06 VCD/ml
Viability profile (Day 7 after inoculation, selected in CD-Fusion w/o Pro + 0.1 mM DHP, selective conditions): 32.2%
